This is an account of results in ChEMBL document CHEMBL1122604, “(E)-2-(3,4-dimethoxyphenyl)-3-fluoroallylamine: a selective, enzyme-activated inhibitor of type B monoamine oxidase” (J Med Chem, 1984).

“And” between values parts separate entries of the source, which are not always exact repeats. Equal values may be shown once. Where only a bound is given, the exact number is not on record here.

A short description of data set [1]: The minimum half-life at apparent dissociation concentration of 40 uM at 10 degrees Centigrade. It counts as ADME.
Data set [2] in a line: The minimum half-life at saturation concentration of 130 uM at 10 degrees Centigrade. It counts as ADME. Particulars: read-out: T50.
Data set [3] concerns the target T1, Amine oxidase [flavin-containing] A (Rattus norvegicus, UniProt P21396).
T1 sequence (P21396 whole entry): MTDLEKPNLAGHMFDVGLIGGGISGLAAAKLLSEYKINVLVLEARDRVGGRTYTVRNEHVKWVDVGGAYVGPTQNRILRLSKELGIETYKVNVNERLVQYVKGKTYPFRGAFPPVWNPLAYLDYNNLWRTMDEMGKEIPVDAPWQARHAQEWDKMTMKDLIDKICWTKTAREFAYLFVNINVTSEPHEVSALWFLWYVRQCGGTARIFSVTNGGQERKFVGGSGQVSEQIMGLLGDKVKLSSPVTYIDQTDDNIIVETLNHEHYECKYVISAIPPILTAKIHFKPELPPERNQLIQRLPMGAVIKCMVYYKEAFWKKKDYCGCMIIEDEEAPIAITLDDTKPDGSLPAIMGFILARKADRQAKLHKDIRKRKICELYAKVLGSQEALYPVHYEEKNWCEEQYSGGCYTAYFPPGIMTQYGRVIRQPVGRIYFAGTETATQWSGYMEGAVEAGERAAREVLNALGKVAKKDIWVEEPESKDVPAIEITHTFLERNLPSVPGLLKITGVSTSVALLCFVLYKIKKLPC
Kind of data set: Inhibition of monoamine oxidase (MAO) type A by administering the compound perorally at a dose level of 0.5 mg/(kg day). Type of data set: functional. Conditions: po.

Data set [4] deals with T2, Amine oxidase [flavin-containing] B (Rattus norvegicus, UniProt P19643).
T2 sequence (P19643 whole entry): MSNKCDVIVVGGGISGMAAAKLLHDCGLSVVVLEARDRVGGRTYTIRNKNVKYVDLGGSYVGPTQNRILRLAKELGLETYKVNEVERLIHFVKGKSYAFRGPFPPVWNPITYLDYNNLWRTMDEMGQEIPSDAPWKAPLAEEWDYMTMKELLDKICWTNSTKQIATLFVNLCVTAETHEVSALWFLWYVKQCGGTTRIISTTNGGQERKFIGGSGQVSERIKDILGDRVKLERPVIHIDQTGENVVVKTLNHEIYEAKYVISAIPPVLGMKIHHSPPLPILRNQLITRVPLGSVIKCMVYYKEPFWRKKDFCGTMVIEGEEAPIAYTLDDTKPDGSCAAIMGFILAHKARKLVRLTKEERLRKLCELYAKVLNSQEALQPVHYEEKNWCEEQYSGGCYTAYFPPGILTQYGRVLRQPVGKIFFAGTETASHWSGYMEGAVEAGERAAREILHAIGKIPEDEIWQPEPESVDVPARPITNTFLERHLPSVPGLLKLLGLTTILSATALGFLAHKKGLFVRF
Kind of data set: Inhibition of monoamine oxidase (MAO) type B by administering the compound perorally at a dose level of 0.5 mg/(kg day). Type of data set: functional. Particulars: po.

For another data set, the species on record is Rattus norvegicus. Kind of data set: Compound was evaluated for apparent kinetic dissociation (Ki) using Kitz and Wilson method. Type of data set: functional, organism-based.
For data set [5], the target named is T1, Amine oxidase [flavin-containing] A. The experiment in a line: Inhibition of monoamine oxidase (MAO) type A by administering the compound perorally at a dose level of 2.5 mg/(kg day). Conditions: po. It counts as functional.

Turning to `COc1ccc(/C(=C\F)CN)cc1OC.Cl`, the T50 in data set [1] turned out to be 1.7 min. Also, the half-life at 130 µM in data set [2] was found to be 14.5 min. For the same compound, the figures for the Inhibition in data set [3], in data set [4] and in data set [5] were less than 15%, more than 85% and 50%, respectively. In addition, the Ki in the data set filed under Rattus norvegicus is 40 µM and 130 µM.
